The nature of data set [1]: Antithrombotic activity in New Zealand white rabbit platelet poor plasma assessed as prolongation of thrombin time at 100 uM incubated for 3 mins by coagulometer based assay. It is filed as functional, Oryctolagus cuniculus.
A short description of data set [2]: Antithrombotic activity in New Zealand white rabbit platelet poor plasma assessed as increase in activated partial thromboplastin time at 100 uM incubated for 3 mins by coagulometer based assay. It is filed as functional, Oryctolagus cuniculus.
Data set [3] in a line: Antithrombotic activity in New Zealand white rabbit platelet poor plasma assessed as increase in prothrombin time at 100 uM incubated for 3 mins by coagulometer based assay. Format: functional, Oryctolagus cuniculus.
A short description of data set [4]: Antithrombotic activity in New Zealand white rabbit platelet poor plasma assessed as fibrinogen at 100 uM incubated for 3 mins by coagulometer based assay. It is filed as functional, Oryctolagus cuniculus.
Data set [5] in a line: Antioxidant activity assessed as DPPH radical scavenging by spectrophotometric analysis. Format: physicochemical.
Data set [6] can be described thus: Neuroprotective activity against H2O2-induced cytotoxicity in rat PC12 cells assessed as cell viability at 50 uM by MTT assay. The note with it: PC-12, read-out: INH. Format: functional. A general note: Formazan colour is commonly taken as a measure of viable cells.
A short description of data set [7]: Neuroprotective activity against H2O2-induced cytotoxicity in rat PC12 cells assessed as cell viability at 25 uM by MTT assay. Format: functional. The note with it: PC-12, read-out: INH.
Data set [8] in a line: Solubility of compound in water at 0.1 to 10 ug/ml by UV spectrophotometry. Format: physicochemical.
The nature of data set [9]: Solubility of compound in water at 0.1 to 10 ug/ml by UV spectrophotometry relative to scutellarein. Format: physicochemical. The note with it: buffer.

The structures appear in SMILES notation. pIC50: −log10 of the molar value. Converted amounts (≈) assume the structure as drawn.

In general, pIC50 refers to −log10 of the IC50, conventionally taken in molar units. One may read the solubility as how much of the substance goes into solution per volume. Low readings indicate a poorly soluble substance, high ones a readily soluble substance. For `O=c1cc(-c2ccc(OCCN3CCOCC3)cc2)oc2cc(O)c(O)c(O)c12`, the TT in [1] came out at 19.7 s. Further, the APTT in data set [2] is 29.05 s. Moreover, in data set [3], the PT is listed as 6.7 s. Moreover, in [4], the Activity came to 5.23 g/L. The negative logarithm of the IC50 (pIC50) in data set [5] was 3.58. Also, the cell viability at 50 µM in [6] was determined as 48.2%. Besides, in data set [7], the neuroprotection (% cell viability vs H2O2 cytotoxicity) at 25 µM is 32.3%. In data set [8], this molecule gave a solubility of 9.4 µg/mL (≈ 23.5 µM). Also, the “fold change (FC)” value in [9] turned out to be 1.37.
On to `CN1CCN(C(=O)Oc2ccc(-c3cc(=O)c4c(O)c(O)c(O)cc4o3)cc2)CC1`, for which, in data set [1], the TT worked out at 24.52 s. For the same molecule, in [2], the APTT is listed as 26.87 s. The PT in data set [3] came to 7.03 s. The Activity in data set [4] is reported as 5.42 g/L. Also, the pIC50 in data set [5] was 4.72. The cell viability at 50 µM in [6] stood at 92.5%. Also, in data set [7], the neuroprotection (% cell viability vs H2O2 cytotoxicity) at 25 µM worked out at 68.6%. This molecule also displayed a solubility in data set [8] of 15.1 µg/mL (≈ 36.5 µM). In data set [9], the “fold change (FC)” value stood at 2.2.
On to `O=C(COc1ccc(-c2cc(=O)c3c(O)c(O)c(O)cc3o2)cc1)N1CCOCC1`, for which the TT in [1] was found to be 19.9 s. Further, in data set [2], the APTT was found to be 27.1 s. Also, the PT in [3] turned out to be 7.33 s. In data set [4], the Activity is recorded as 5.49 g/L. In addition, the pIC50 in data set [5] is 4.08. In data set [6], the cell viability at 50 µM was 64.6%. Also, the neuroprotection (% cell viability vs H2O2 cytotoxicity) at 25 µM in [7] amounted to 43.4%. This molecule yielded a solubility in data set [8] of 9.45 µg/mL (≈ 22.9 µM). The “fold change (FC)” value in data set [9] stood at 1.38.
In the case of `O=c1cc(-c2ccc(O)cc2)oc2cc(O)c(O)c(O)c12` [SCUTELLAREIN], the TT in data set [1] is recorded as 24.4 s. Also, the APTT in data set [2] was determined as 36.65 s. In data set [3], the PT is reported as 5.93 s. Also, the Activity in data set [4] was 6.84 g/L. In data set [5], the pIC50 was 4.65. Also, the cell viability at 50 µM in data set [6] turned out to be 91.2%. In addition, the neuroprotection (% cell viability vs H2O2 cytotoxicity) at 25 µM in [7] is 64.6%. For the same molecule, in [9], the “fold change (FC)” value is 1.
Take `O=C(Oc1ccc(-c2cc(=O)c3c(O)c(O)c(O)cc3o2)cc1)N1CCOCC1`: the TT in [1] stood at 24.62 s. In addition, the APTT in data set [2] was determined as 28.28 s. Further, in [3], the PT came out at 8.55 s. Also, the Activity in [4] was found to be 5.52 g/L. The negative-log IC50 (pIC50) in [5] is 4.72. For the same molecule, in data set [6], the cell viability at 50 µM was determined as 94.2%. For the same molecule, in data set [7], the neuroprotection (% cell viability vs H2O2 cytotoxicity) at 25 µM is 73.9%. Also, the solubility in data set [8] worked out at 15.3 µg/mL (≈ 38.4 µM). Also, the “fold change (FC)” value in data set [9] was determined as 2.34.
As for `CN(C)CCCOc1ccc(-c2cc(=O)c3c(O)c(O)c(O)cc3o2)cc1`, in [1], the TT came out at 19.9 s. In data set [2], the APTT is recorded as 26.58 s. Further, the PT in data set [3] is recorded as 6.15 s. For the same molecule, the Activity in [4] is 5.28 g/L. Besides, in data set [5], the pIC50 is 3.64. Moreover, the cell viability at 50 µM in data set [6] is 52.2%. Also, the neuroprotection (% cell viability vs H2O2 cytotoxicity) at 25 µM in data set [7] came to 33.6%. Besides, the solubility in data set [8] is 8.5 µg/mL (≈ 22.9 µM). The “fold change (FC)” value in data set [9] amounted to 1.24.
For `CCN(CC)CCOc1ccc(-c2cc(=O)c3c(O)c(O)c(O)cc3o2)cc1`, the TT in [1] is given as 22.03 s. Also, the APTT in data set [2] is reported as 30.45 s. In addition, in data set [3], the PT turned out to be 6.9 s. The Activity in [4] is 5.72 g/L. Further, in [5], the pIC50 was 3.69. The cell viability at 50 µM in [6] is 58.4%. In data set [7], the neuroprotection (% cell viability vs H2O2 cytotoxicity) at 25 µM was found to be 38.5%. In data set [8], this molecule had a solubility of 8.68 µg/mL (≈ 22.5 µM). The “fold change (FC)” value in [9] is recorded as 1.27.
Turning to `CN(C)C(=O)Oc1ccc(-c2cc(=O)c3c(O)c(O)c(O)cc3o2)cc1`, the TT in [1] is on record as 24.3 s. For the same molecule, the APTT in [2] is recorded as 27.78 s. Also, the PT in data set [3] is 8.1 s. Further, the Activity in data set [4] is recorded as 5.56 g/L. Moreover, in data set [5], the negative logarithm of the IC50 (pIC50) is 4.43. In addition, in data set [6], the cell viability at 50 µM is 71.2%. Moreover, the neuroprotection (% cell viability vs H2O2 cytotoxicity) at 25 µM in [7] turned out to be 48.7%. This molecule gave a solubility in data set [8] of 9.56 µg/mL (≈ 26.8 µM). In addition, the “fold change (FC)” value in data set [9] was 1.4.
On to `O=c1cc(-c2ccc(OCCCN3CCOCC3)cc2)oc2cc(O)c(O)c(O)c12`, for which, in data set [1], the TT is on record as 19.6 s. For the same molecule, the APTT in data set [2] came out at 28.25 s. The PT in data set [3] stood at 6.63 s. Besides, the Activity in [4] is on record as 5.42 g/L. For the same molecule, the pIC50 in [5] was 3.56. For the same molecule, in [6], the cell viability at 50 µM is 44.2%. The neuroprotection (% cell viability vs H2O2 cytotoxicity) at 25 µM in [7] was determined as 28.3%. In data set [8], this molecule returned a solubility of 8.56 µg/mL (≈ 20.7 µM). The “fold change (FC)” value in [9] amounted to 1.25.
With `CN(C)CCOc1ccc(-c2cc(=O)c3c(O)c(O)c(O)cc3o2)cc1`, the TT in [1] was 22.97 s. Also, the APTT in data set [2] came out at 29.97 s. Also, in [3], the PT came out at 6.82 s. In addition, the Activity in data set [4] amounted to 5.11 g/L. Further, the pIC50 in data set [5] is 3.67. Moreover, the cell viability at 50 µM in [6] was found to be 56.2%. Besides, the neuroprotection (% cell viability vs H2O2 cytotoxicity) at 25 µM in data set [7] stood at 35.8%. Besides, the solubility in [8] was 9.28 µg/mL (≈ 26 µM). Moreover, the “fold change (FC)” value in [9] came to 1.35.
For the molecule `CN(C)C(=O)COc1ccc(-c2cc(=O)c3c(O)c(O)c(O)cc3o2)cc1`, the TT in data set [1] was 22.27 s. Further, in data set [2], the APTT was found to be 29.25 s. The PT in data set [3] stood at 7.17 s. Besides, the Activity in data set [4] came to 5.14 g/L. Further, the pIC50 in data set [5] is 4.09. The cell viability at 50 µM in data set [6] was 68.1%. In data set [7], the neuroprotection (% cell viability vs H2O2 cytotoxicity) at 25 µM is 46.5%. Also, in data set [8], the solubility is 9.32 µg/mL (≈ 25.1 µM). The “fold change (FC)” value in data set [9] turned out to be 1.36.
With `O=C(O)[C@H]1O[C@@H](Oc2cc3oc(-c4ccc(O)cc4)cc(=O)c3c(O)c2O)[C@H](O)[C@@H](O)[C@@H]1O` [SCUTELLARIN], in [1], the TT is listed as 23.08 s. In addition, the APTT in data set [2] was found to be 34.18 s. The PT in data set [3] was determined as 6.28 s. The Activity in data set [4] was 6.13 g/L. For the same molecule, the negative-log IC50 (pIC50) in [5] is 4.55. Besides, the cell viability at 50 µM in data set [6] turned out to be 79.2%. In data set [7], the neuroprotection (% cell viability vs H2O2 cytotoxicity) at 25 µM came to 53.1%.
In the case of `CCN(CC)C(=O)Oc1ccc(-c2cc(=O)c3c(O)c(O)c(O)cc3o2)cc1`, the TT in [1] was 24.36 s. The APTT in data set [2] is reported as 28.2 s. In addition, in data set [3], the PT turned out to be 7.67 s. Moreover, the Activity in data set [4] is recorded as 5.21 g/L. Further, the pIC50 in data set [5] was 4.49. For the same molecule, the cell viability at 50 µM in data set [6] was determined as 75.2%. The neuroprotection (% cell viability vs H2O2 cytotoxicity) at 25 µM in data set [7] turned out to be 51.3%. Also, the solubility in data set [8] was found to be 9.23 µg/mL (≈ 24 µM). The “fold change (FC)” value in [9] was 1.35.
As for `CCN(CC)C(=O)COc1ccc(-c2cc(=O)c3c(O)c(O)c(O)cc3o2)cc1`, the TT in data set [1] is reported as 20.92 s. For the same molecule, the APTT in [2] is on record as 26.4 s. The PT in data set [3] is 7.45 s. In addition, in data set [4], the Activity is 5.37 g/L. For the same molecule, the pIC50 in data set [5] is 4.09. In addition, the cell viability at 50 µM in data set [6] was determined as 66.4%. In addition, the neuroprotection (% cell viability vs H2O2 cytotoxicity) at 25 µM in data set [7] stood at 44.7%. This molecule also returned a solubility in [8] of 8.95 µg/mL (≈ 22.4 µM). The “fold change (FC)” value in data set [9] was found to be 1.31.
`CC(C)N(C(=O)Oc1ccc(-c2cc(=O)c3c(O)c(O)c(O)cc3o2)cc1)C(C)C`: the TT in data set [1] is 24.57 s. Moreover, the APTT in data set [2] came out at 27.97 s. Moreover, the PT in data set [3] worked out at 7.97 s. In addition, in data set [4], the Activity is given as 5.65 g/L. For the same molecule, the pIC50 in data set [5] is 4.77. Moreover, the cell viability at 50 µM in data set [6] worked out at 93.4%. In addition, the neuroprotection (% cell viability vs H2O2 cytotoxicity) at 25 µM in data set [7] was found to be 71.7%. The molecule further returned a solubility in [8] of 8.67 µg/mL (≈ 21 µM). In addition, the “fold change (FC)” value in data set [9] came out at 1.27.

(Values after ChEMBL document CHEMBL3632594, “Synthesis of scutellarein derivatives to increase biological activity and water solubility” (Bioorg Med Chem, 2015).)
